Experimental data published in the supplement of paper PMC10307832.

How the values were obtained:
Assay in all cases: relative viability (nuclei count vs DMSO), 5 days (fraction); higher = more cells survive
NCI-H3122 = system: NCI-H3122
Summary of the method: (§1)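 Lung cancer cell lines in 1536-well plates were dosed by pin tool the day after seeding, either with one drug alone or with a fixed anchor-drug dose plus five library-drug doses (not always all listed) in √10 steps. After 5 days, cells were fixed and their nuclei stained in one step (final 0.05% Triton X-100, 1% formaldehyde, 1 ug/ml Hoechst), then counted on 4× images. Relative viability is the nuclei count in treated wells divided by that in vehicle wells. Values are medians of duplicate plates.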

PC-14 = system: PC-14
Summary of the method: as §1

NCI-H1355 = system: NCI-H1355
Summary of the method: as §1

NCI-H441 = system: NCI-H441
Summary of the method: as §1

NCI-H520 = system: NCI-H520
Summary of the method: as §1

NCI-H727 = system: NCI-H727
Summary of the method: as §1

NCI-H322M = system: NCI-H322M
Summary of the method: as §1

NCI-H596 = system: NCI-H596
Summary of the method: as §1

NCI-H1792 = system: NCI-H1792
Summary of the method: as §1

NCI-H661 = system: NCI-H661
Summary of the method: as §1

NCI-H1755 = system: NCI-H1755
Summary of the method: as §1

NCI-H1915 = system: NCI-H1915
Summary of the method: as §1

SK-MES-1 = system: SK-MES-1
Summary of the method: as §1

LCLC-103H = system: LCLC-103H
Summary of the method: as §1

NCI-H2347 = system: NCI-H2347
Summary of the method: as §1

NCI-H1651 = system: NCI-H1651
Summary of the method: as §1

LXF-289 = system: LXF-289
Summary of the method: as §1

NCI-H460 = system: NCI-H460
Summary of the method: as §1

RERF-LC-KJ = system: RERF-LC-KJ
Summary of the method: as §1

NCI-H1563 = system: NCI-H1563
Summary of the method: as §1

SMILES: O=c1cc(-c2cccc3c2Sc2ccccc2S3)oc(N2CCOCC2)c1 + C[C@]1(O)C[C@@H](c2nc(-c3ccc4ccc(-c5ccccc5)nc4c3)c3c(N)nccn32)C1 [Linsitinib] (partner 1 µM)
- relative viability (NCI-H3122; first compound 0.08 µM): 1.07
- relative viability (NCI-H3122; first compound 0.253 µM): 1.16
- relative viability (NCI-H3122; first compound 0.8 µM): 1.06
- relative viability (NCI-H3122; first compound 2.53 µM): 0.99
- relative viability (NCI-H3122; first compound 8 µM): 1.07
- relative viability (PC-14; first compound 0.08 µM): 1.02
- relative viability (PC-14; first compound 0.253 µM): 1.07
- relative viability (PC-14; first compound 0.8 µM): 0.966
- relative viability (PC-14; first compound 2.53 µM): 0.92
- relative viability (PC-14; first compound 8 µM): 0.948
- relative viability (NCI-H1355; first compound 0.08 µM): 0.853
- relative viability (NCI-H1355; first compound 0.253 µM): 0.937
- relative viability (NCI-H1355; first compound 0.8 µM): 0.818
- relative viability (NCI-H1355; first compound 2.53 µM): 0.712
- relative viability (NCI-H1355; first compound 8 µM): 0.689
- relative viability (NCI-H441; first compound 0.08 µM): 0.549
- relative viability (NCI-H441; first compound 0.253 µM): 0.619
- relative viability (NCI-H441; first compound 0.8 µM): 0.759
- relative viability (NCI-H441; first compound 2.53 µM): 0.584
- relative viability (NCI-H441; first compound 8 µM): 0.632
- relative viability (NCI-H520; first compound 0.08 µM): 0.897
- relative viability (NCI-H520; first compound 0.253 µM): 1.06
- relative viability (NCI-H520; first compound 0.8 µM): 1.15
- relative viability (NCI-H520; first compound 2.53 µM): 0.972
- relative viability (NCI-H520; first compound 8 µM): 1.02
- relative viability (NCI-H727; first compound 0.253 µM): 0.284
- relative viability (NCI-H727; first compound 2.53 µM): 0.314
- relative viability (NCI-H727; first compound 8 µM): 0.304
- relative viability (NCI-H322M; first compound 0.08 µM): 0.868
- relative viability (NCI-H322M; first compound 0.253 µM): 1.04
- relative viability (NCI-H322M; first compound 0.8 µM): 0.866
- relative viability (NCI-H322M; first compound 2.53 µM): 0.928
- relative viability (NCI-H322M; first compound 8 µM): 0.839
- relative viability (NCI-H596; first compound 0.08 µM): 1.02
- relative viability (NCI-H596; first compound 0.253 µM): 1.2
- relative viability (NCI-H596; first compound 0.8 µM): 1.14
- relative viability (NCI-H596; first compound 2.53 µM): 1.08
- relative viability (NCI-H596; first compound 8 µM): 1.15
- relative viability (NCI-H1792; first compound 0.253 µM): 0.61
- relative viability (NCI-H1792; first compound 0.8 µM): 0.502
- relative viability (NCI-H1792; first compound 2.53 µM): 0.535
- relative viability (NCI-H1792; first compound 8 µM): 0.516
- relative viability (NCI-H661; first compound 0.08 µM): 0.507
- relative viability (NCI-H661; first compound 0.253 µM): 0.473
- relative viability (NCI-H661; first compound 0.8 µM): 0.55
- relative viability (NCI-H661; first compound 2.53 µM): 0.527
- relative viability (NCI-H661; first compound 8 µM): 0.591
- relative viability (NCI-H1755; first compound 0.08 µM): 1.03
- relative viability (NCI-H1755; first compound 0.253 µM): 1.1
- relative viability (NCI-H1755; first compound 0.8 µM): 0.978
- relative viability (NCI-H1755; first compound 2.53 µM): 1.02
- relative viability (NCI-H1755; first compound 8 µM): 0.936
- relative viability (NCI-H1915; first compound 0.08 µM): 1.06
- relative viability (NCI-H1915; first compound 0.253 µM): 1.1
- relative viability (NCI-H1915; first compound 0.8 µM): 1.07
- relative viability (NCI-H1915; first compound 2.53 µM): 1.05
- relative viability (NCI-H1915; first compound 8 µM): 1.12
- relative viability (SK-MES-1; first compound 0.08 µM): 1.12
- relative viability (SK-MES-1; first compound 0.253 µM): 1.16
- relative viability (SK-MES-1; first compound 0.8 µM): 0.956
- relative viability (SK-MES-1; first compound 2.53 µM): 1.08
- relative viability (SK-MES-1; first compound 8 µM): 1.05
- relative viability (LCLC-103H; first compound 0.08 µM): 1.06
- relative viability (LCLC-103H; first compound 0.253 µM): 1.1
- relative viability (LCLC-103H; first compound 0.8 µM): 1.08
- relative viability (LCLC-103H; first compound 2.53 µM): 1.06
- relative viability (LCLC-103H; first compound 8 µM): 1.06
- relative viability (NCI-H2347; first compound 0.08 µM): 0.918
- relative viability (NCI-H2347; first compound 0.253 µM): 1.15
- relative viability (NCI-H2347; first compound 0.8 µM): 0.998
- relative viability (NCI-H2347; first compound 2.53 µM): 1.02
- relative viability (NCI-H2347; first compound 8 µM): 1.11
- relative viability (NCI-H1651; first compound 0.08 µM): 1.06
- relative viability (NCI-H1651; first compound 0.253 µM): 1.2
- relative viability (NCI-H1651; first compound 0.8 µM): 0.954
- relative viability (NCI-H1651; first compound 2.53 µM): 0.879
- relative viability (NCI-H1651; first compound 8 µM): 0.865
- relative viability (LXF-289; first compound 0.08 µM): 0.993
- relative viability (LXF-289; first compound 0.253 µM): 0.976
- relative viability (LXF-289; first compound 0.8 µM): 0.99
- relative viability (LXF-289; first compound 2.53 µM): 0.96
- relative viability (LXF-289; first compound 8 µM): 1.07
- relative viability (NCI-H460; first compound 0.08 µM): 0.991
- relative viability (NCI-H460; first compound 0.253 µM): 0.997
- relative viability (NCI-H460; first compound 0.8 µM): 1.08
- relative viability (NCI-H460; first compound 2.53 µM): 0.796
- relative viability (NCI-H460; first compound 8 µM): 0.791
- relative viability (RERF-LC-KJ; first compound 0.08 µM): 0.865
- relative viability (RERF-LC-KJ; first compound 0.253 µM): 0.939
- relative viability (RERF-LC-KJ; first compound 0.8 µM): 0.85
- relative viability (RERF-LC-KJ; first compound 2.53 µM): 1.01
- relative viability (RERF-LC-KJ; first compound 8 µM): 0.763
- relative viability (NCI-H1563; first compound 0.08 µM): 1.19
- relative viability (NCI-H1563; first compound 0.253 µM): 1.42
- relative viability (NCI-H1563; first compound 0.8 µM): 1.2
- relative viability (NCI-H1563; first compound 2.53 µM): 1.2
- relative viability (NCI-H1563; first compound 8 µM): 1.06
